In ChEMBL document CHEMBL1212923, “Synthesis and in vivo evaluation of phenethylpiperazine amides: selective 5-hydroxytryptamine(2A) receptor antagonists for the treatment of insomnia” (J Med Chem, 2010):
Calls of active or inactive are those of the source. The rule behind the calls is not given here.

Tests used:
[1] = biological target: T1, 5-hydroxytryptamine receptor 2C (Homo sapiens, UniProt P28335); assay type: cell-based, HEK293
T1 sequence (P28335 whole entry): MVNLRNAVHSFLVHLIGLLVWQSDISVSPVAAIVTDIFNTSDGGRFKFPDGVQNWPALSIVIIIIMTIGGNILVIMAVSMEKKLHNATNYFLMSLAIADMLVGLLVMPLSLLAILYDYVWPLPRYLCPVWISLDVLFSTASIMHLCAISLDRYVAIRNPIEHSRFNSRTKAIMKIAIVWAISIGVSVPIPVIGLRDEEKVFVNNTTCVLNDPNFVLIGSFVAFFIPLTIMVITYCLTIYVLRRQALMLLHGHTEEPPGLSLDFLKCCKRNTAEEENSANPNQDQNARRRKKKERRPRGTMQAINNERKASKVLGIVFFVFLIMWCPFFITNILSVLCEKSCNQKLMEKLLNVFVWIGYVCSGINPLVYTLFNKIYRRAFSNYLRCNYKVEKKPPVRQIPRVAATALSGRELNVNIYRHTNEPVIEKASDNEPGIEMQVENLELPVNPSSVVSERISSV

[2] = biological target: 5-hydroxytryptamine receptor 2A (Homo sapiens, UniProt P28223); assay: biochemical
Chain of 5-hydroxytryptamine receptor 2A (P28223 whole entry): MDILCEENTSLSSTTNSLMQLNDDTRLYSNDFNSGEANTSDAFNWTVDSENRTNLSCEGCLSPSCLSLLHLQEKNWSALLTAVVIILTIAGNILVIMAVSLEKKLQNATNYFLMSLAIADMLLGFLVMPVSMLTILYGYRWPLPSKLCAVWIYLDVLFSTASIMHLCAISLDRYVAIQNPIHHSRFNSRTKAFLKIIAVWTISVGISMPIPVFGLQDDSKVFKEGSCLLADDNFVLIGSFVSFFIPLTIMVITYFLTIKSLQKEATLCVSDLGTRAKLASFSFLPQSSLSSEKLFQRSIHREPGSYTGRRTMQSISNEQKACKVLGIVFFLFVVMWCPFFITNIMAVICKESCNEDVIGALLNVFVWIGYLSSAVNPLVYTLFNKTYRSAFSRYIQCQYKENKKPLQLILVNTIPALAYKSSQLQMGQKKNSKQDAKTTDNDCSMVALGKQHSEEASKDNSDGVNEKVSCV
Description: Displacement of [125I]DOI from human recombinant 5HT2A receptor expressed in HEK293 cells after 1 hr by scintillation counting

[3] = Half life in rat liver microsomes; assay type: ADME, Microsome
[4] = biological target: hERG (KCNH2) (Homo sapiens, UniProt Q12809); assay: Inhibition of human ERG at 3 uM by patch clamp electrophysiology assay
Chain of hERG (KCNH2) (Q12809 whole entry): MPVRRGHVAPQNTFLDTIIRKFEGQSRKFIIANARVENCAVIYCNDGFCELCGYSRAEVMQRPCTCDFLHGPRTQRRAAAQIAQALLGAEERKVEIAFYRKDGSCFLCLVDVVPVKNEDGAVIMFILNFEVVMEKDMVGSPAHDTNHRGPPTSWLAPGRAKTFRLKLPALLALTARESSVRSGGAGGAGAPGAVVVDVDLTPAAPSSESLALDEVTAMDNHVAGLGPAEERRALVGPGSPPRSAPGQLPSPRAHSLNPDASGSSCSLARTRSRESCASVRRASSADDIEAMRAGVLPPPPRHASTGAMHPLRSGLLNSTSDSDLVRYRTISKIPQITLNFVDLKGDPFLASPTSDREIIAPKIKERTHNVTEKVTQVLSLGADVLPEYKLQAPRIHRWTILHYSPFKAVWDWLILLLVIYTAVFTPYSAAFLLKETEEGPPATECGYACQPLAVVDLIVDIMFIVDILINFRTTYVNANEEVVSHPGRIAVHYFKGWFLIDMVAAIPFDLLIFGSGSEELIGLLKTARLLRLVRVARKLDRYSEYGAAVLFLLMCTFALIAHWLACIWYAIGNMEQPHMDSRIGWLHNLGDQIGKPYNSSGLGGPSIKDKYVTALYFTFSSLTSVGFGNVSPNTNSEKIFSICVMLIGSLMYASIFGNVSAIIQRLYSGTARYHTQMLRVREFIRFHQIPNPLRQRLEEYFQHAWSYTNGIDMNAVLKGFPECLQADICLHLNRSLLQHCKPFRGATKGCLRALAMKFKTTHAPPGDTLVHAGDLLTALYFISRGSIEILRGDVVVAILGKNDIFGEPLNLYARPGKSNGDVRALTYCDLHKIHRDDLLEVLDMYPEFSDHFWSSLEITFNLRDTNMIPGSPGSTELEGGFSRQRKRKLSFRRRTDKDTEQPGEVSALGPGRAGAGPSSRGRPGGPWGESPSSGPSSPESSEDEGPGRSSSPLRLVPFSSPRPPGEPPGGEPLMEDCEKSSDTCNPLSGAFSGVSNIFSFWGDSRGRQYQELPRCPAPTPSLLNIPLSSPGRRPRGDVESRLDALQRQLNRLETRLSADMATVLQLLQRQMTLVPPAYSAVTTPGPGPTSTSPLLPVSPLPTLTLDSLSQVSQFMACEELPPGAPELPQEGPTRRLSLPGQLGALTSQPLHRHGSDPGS

[5] = test system: Rattus norvegicus; assay: Inhibition of DOI-induced hypolocomotion in Sprague-Dawley rat at 1 mg/kg, po administered 25 mins before DOI challenge measured after 10 mins; assay type: functional
[6] = test system: Rattus norvegicus; assay: Inhibition of DOI-induced hypolocomotion in Sprague-Dawley rat at 3 mg/kg, po administered 25 mins before DOI challenge measured after 10 mins; assay type: functional
[7] = Drug level in Sprague-Dawley rat brain at 3 mg/kg, po after 0.75 hrs; assay type: ADME, organism-based; parameters: dose 3 mg/kg, route oral; details: read-out: Drug uptake
[8] = Drug level in Sprague-Dawley rat plasma at 3 mg/kg, po after 0.75 hrs; assay type: ADME, organism-based; parameters: dose 3 mg/kg, route oral; details: read-out: Drug uptake
[9] = Ratio of drug level in brain to plasma in Sprague-Dawley rat at 3 mg/kg, po after 0.75 hrs; assay type: ADME, organism-based; parameters: dose 3 mg/kg, route oral
[10] = Cmax in Sprague-Dawley rat at 10 mg/kg, po; assay type: ADME, organism-based; parameters: dose 10 mg/kg, route oral; details: in vivo
[11] = AUClast in Sprague-Dawley rat at 10 mg/kg, po; assay type: ADME, organism-based; parameters: time 0 - last, dose 10 mg/kg, route oral; details: plasma
[12] = Half life in Sprague-Dawley rat at 10 mg/kg, po; assay type: ADME, organism-based; parameters: dose 10 mg/kg, route oral; details: in vivo
[13] = Total clearance in Sprague-Dawley rat at 2 mg/kg, iv; assay type: ADME, organism-based; parameters: dose 2 mg/kg, route intravenous; details: in vivo
[14] = test system: Rattus norvegicus; assay: Volume of distribution at steady state in Sprague-Dawley rat at 10 mg/kg, po; assay type: ADME, organism-based; parameters: dose 10 mg/kg, route oral; details: in vivo
[15] = Oral bioavailability in Sprague-Dawley rat at 10 mg/kg relative to 2 mg/kg, iv dose; assay type: ADME, organism-based; details: in vivo
[16] = test system: Rattus norvegicus; assay: Hepatic blood flow in Sprague-Dawley rat at 10 mg/kg, po; assay type: ADME, organism-based, Liver; parameters: dose 10 mg/kg, route oral; details: in vivo
[17] = test system: Rattus norvegicus; assay: Inhibition of DOI-induced hypolocomotion in po dosed Sprague-Dawley rat administered 25 mins before DOI challenge measured after 10 mins; assay type: functional, organism-based
[18] = Drug level in Sprague-Dawley rat brain at 0.3 mg/kg, po after 0.75 hrs; assay type: ADME, organism-based; parameters: dose 0.3 mg/kg, route oral; details: read-out: Drug uptake
[19] = Drug level in Sprague-Dawley rat plasma at 0.3 mg/kg, po after 0.75 hrs; assay type: ADME, organism-based; parameters: dose 0.3 mg/kg, route oral; details: read-out: Drug uptake
[20] = biological target: T2, Cytochrome P450 1A2 (Homo sapiens, UniProt P05177); assay: Inhibition of CYP1A2 in human liver microsomes; assay type: ADME, Microsome
T2 sequence (P05177 whole entry): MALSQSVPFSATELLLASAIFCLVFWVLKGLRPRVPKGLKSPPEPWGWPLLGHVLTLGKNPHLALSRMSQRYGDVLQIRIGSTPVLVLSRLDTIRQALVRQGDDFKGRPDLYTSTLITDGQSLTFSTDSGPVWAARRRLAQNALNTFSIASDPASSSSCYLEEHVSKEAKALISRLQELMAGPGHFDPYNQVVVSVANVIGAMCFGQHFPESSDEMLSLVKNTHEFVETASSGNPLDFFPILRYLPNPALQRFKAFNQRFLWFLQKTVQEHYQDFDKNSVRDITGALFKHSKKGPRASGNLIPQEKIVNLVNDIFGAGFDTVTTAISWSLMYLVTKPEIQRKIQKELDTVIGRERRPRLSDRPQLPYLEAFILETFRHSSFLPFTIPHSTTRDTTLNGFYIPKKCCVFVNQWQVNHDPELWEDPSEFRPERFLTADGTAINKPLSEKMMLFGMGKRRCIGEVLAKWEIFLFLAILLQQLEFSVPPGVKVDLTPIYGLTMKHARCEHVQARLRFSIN

[21] = biological target: Cytochrome P450 2C9 (Homo sapiens, UniProt P11712); assay: Inhibition of CYP2C9 in human liver microsomes; assay type: ADME, Microsome
Chain of Cytochrome P450 2C9 (P11712 whole entry): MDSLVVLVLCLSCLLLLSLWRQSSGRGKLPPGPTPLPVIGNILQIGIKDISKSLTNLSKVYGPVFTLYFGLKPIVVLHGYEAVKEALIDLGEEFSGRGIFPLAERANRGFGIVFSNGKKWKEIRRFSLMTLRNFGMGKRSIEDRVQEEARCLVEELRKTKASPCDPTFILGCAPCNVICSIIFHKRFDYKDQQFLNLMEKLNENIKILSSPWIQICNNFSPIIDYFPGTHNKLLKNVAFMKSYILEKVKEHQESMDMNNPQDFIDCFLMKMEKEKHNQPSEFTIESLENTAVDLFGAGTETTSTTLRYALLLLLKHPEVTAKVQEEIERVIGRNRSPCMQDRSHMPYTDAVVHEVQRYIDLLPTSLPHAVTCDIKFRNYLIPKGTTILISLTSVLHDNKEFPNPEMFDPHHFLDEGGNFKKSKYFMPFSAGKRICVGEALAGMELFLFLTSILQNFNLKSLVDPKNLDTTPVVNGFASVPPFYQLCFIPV

[22] = biological target: Cytochrome P450 2C19 (Homo sapiens, UniProt P33261); assay: Inhibition of CYP2C19 in human liver microsomes; assay type: ADME, Microsome
Chain of Cytochrome P450 2C19 (P33261 whole entry): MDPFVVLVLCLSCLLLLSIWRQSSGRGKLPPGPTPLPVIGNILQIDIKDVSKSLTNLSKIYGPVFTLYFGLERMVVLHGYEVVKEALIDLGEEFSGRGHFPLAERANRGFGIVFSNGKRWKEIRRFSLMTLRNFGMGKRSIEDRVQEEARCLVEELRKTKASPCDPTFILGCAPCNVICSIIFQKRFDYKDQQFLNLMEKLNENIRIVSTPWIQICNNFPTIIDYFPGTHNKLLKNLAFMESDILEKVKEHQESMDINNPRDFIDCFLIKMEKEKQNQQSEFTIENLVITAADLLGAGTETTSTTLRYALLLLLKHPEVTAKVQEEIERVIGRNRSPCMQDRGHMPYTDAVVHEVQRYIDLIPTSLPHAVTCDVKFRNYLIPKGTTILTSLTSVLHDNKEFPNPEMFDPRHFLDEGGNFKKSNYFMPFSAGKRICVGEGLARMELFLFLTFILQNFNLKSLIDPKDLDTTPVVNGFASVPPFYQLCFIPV

[23] = biological target: Cytochrome P450 2D6 (Homo sapiens, UniProt P10635); assay: Inhibition of CYP2D6 in human liver microsomes; assay type: ADME, Microsome
Chain of Cytochrome P450 2D6 (P10635 whole entry): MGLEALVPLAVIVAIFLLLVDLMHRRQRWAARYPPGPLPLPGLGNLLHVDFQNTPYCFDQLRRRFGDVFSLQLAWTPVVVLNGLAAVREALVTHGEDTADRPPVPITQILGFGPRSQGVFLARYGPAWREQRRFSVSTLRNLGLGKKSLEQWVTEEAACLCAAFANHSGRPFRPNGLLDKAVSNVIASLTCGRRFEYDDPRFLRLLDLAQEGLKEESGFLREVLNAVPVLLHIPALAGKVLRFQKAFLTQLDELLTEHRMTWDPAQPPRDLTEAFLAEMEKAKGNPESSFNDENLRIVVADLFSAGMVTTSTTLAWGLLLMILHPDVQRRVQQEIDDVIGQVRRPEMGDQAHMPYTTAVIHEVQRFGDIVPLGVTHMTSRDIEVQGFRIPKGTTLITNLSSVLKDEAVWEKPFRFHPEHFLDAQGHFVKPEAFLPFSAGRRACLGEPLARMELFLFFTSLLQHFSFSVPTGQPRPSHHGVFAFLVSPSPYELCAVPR

[24] = biological target: Cytochrome P450 3A4 (Homo sapiens, UniProt P08684); assay: Inhibition of CYP3A4 in human liver microsomes; assay type: ADME, Microsome
Chain of Cytochrome P450 3A4 (P08684 whole entry): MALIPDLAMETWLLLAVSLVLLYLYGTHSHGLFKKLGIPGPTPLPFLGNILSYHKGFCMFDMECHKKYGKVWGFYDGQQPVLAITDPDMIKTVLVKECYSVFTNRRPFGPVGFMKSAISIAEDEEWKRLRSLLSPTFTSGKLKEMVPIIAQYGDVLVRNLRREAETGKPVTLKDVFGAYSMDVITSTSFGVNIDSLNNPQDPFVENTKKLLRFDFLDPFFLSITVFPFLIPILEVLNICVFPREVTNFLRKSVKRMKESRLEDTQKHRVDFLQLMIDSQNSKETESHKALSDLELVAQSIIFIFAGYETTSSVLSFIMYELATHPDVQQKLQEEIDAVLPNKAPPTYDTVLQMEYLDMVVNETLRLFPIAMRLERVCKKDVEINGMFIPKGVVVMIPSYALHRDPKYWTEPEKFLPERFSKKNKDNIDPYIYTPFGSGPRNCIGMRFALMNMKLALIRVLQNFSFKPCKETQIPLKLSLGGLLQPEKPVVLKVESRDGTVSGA

[25] = test system: Rattus norvegicus; assay: Effect on behavioral activity in Sprague-Dawley rat assessed as increase in deep sleep at 0.1 mg/kg, po after 1 hr; assay type: functional, organism-based; parameters: dose 0.1 mg/kg
[26] = test system: Rattus norvegicus; assay: Effect on behavioral activity in Sprague-Dawley rat assessed as increase in deep sleep at 0.1 mg/kg, po after 3 to 4 hrs; assay type: functional, organism-based; parameters: dose 0.1 mg/kg
[27] = test system: Rattus norvegicus; assay: Effect on behavioral activity in po dosed Sprague-Dawley rat assessed as increase in sleep consolidation after 5 hrs; assay type: functional, organism-based

Compound	Ki [1] [nM]	Ki [2] [nM]	other results
Cn1cc(Br)c(C(=O)N2CCN(CCc3cccc(F)c3)CC2)n1	> 10000	542	–
Cn1cc(Br)c(C(=O)N2CCN(CCc3ccccc3F)CC2)n1	> 10000	18	–
Cn1cc(Br)c(C(=O)N2CCN(CC(=O)c3ccccc3F)CC2)n1	9800	270	–
Cc1c(Br)c(C(=O)N2CCN(CC(=O)c3ccc(F)cc3)CC2)nn1C	2930	4.6	half-life [3]: 29 min; inhibition at 3 µM [4]: 15%; inhibition in vivo at 1 mg/kg [5]: 22%; inhibition in vivo at 3 mg/kg [6]: 65%
Cn1cc(C(F)(F)F)c(C(=O)N2CCN(CC(=O)c3ccc(F)cc3)CC2)n1	3870	28	–
Cn1ccc(C(=O)N2CCN(CC(=O)c3ccc(F)cc3)CC2)n1	1420	37	–
O=C(CN1CCN(C(=O)c2n[nH]cc2Cl)CC1)c1ccc(F)cc1	2750	18.5	–
Cc1[nH]nc(C(=O)N2CCN(CC(=O)c3ccc(F)cc3)CC2)c1Br	3570	4.6	–
Cc1nc2n(c(=O)c1CCN1CCN(C(=O)c3nn(C)cc3Br)CC1)CCCC2	> 10000	> 10000	–
COc1ccc(NC(=O)N2CCN(CCc3ccc(F)cc3)CC2)cc1-c1c(Cl)cnn1C	> 10000	155	–
Cn1cc(Br)c(C(=O)N2CCN(CC(=O)c3ccc(F)cc3F)CC2)n1	> 10000	70	–
Cn1cc(Br)c(C(=O)N2CCN(CC(O)c3ccc(F)cc3)CC2)n1 (centres undefined)	> 10000	368	–
Cn1cc(Br)c(C(=O)N2CCN(CCc3ccc(Cl)cc3)CC2)n1	> 10000	34	–
Cn1cc(Br)c(C(=O)N2CCN(CCc3ccc(F)cc3F)CC2)n1	2820	1.1	half-life [3]: 9 min; inhibition at 3 µM [4]: 80%
Cc1cc(C(=O)N2CCN(CC(=O)c3ccc(F)cc3)CC2)nn1C(C)(C)C	> 10000	9.3	–
Cn1cc(Br)c(C(=O)N2CCN(CC(=O)c3ccc(C(F)(F)F)cc3)CC2)n1	> 10000	865	–

Compound	Ki [1] [nM]	Ki [2] [nM]	other results
COc1ccc(NC(=O)Nc2ccc(F)cc2F)cc1-c1c(Br)cnn1C [NELOTANSERIN]	110	0.51	concentration at 0.75 h [7]: 320 ng/mL; concentration at 0.75 h [8]: 488 ng/mL; Kp at 0.75 h [9]: 0.65
Cn1cc(Br)c(C(=O)N2CCN(CC(=O)c3ccc(OC(F)(F)F)cc3)CC2)n1	5610	6000	–
N#Cc1c[nH]c2c(C(=O)N3CCN(CCc4ccc(F)cc4)CC3)cccc12 [PRUVANSERIN]	645	0.48	–
Cn1cc(Br)c(C(=O)N2CCN(CCN3C(=O)c4ccccc4C3=O)CC2)n1	> 10000	> 10000	–
Cn1cc(Br)c(C(=O)N2CCN(CCc3ccc(F)cc3)CC2)n1	4150	3.6	Cmax [10]: 48 ng/mL; AUC(0-t) [11]: 91 ng·h/mL; half-life [12]: 84 min; clearance [13]: 155 mL/min/kg; Vdss [14]: 8.1 L/kg; bioavailability [15]: 9%; LBF [16]: 220%; half-life [3]: 14 min; inhibition at 3 µM [4]: 79%; EC50 [17]: 3 mg/kg; concentration at 0.75 h [7]: 16.8 ng/mL; concentration at 0.75 h [8]: 8.3 ng/mL; Kp at 0.75 h [9]: 2.02
Cc1cc(C(=O)N2CCN(CC(=O)c3ccc(F)cc3)CC2)nn1-c1ccccc1	3710	11	–
CCn1cc(Cl)c(C(=O)N2CCN(CC(=O)c3ccc(F)cc3)CC2)n1	> 10000	2.6	inhibition in vivo at 3 mg/kg [6]: 54%
COc1ccc(CCN2CCN(C(=O)c3nn(C)cc3Br)CC2)cc1	> 10000	408	–
Cn1cc(Br)c(C(=O)N2CCN(CC(=O)c3ccc(F)cc3)CC2)n1	2120	–	Cmax [10]: 1260 ng/mL; AUC(0-t) [11]: 1450 ng·h/mL; half-life [12]: 126 min; clearance [13]: 66.7 mL/min/kg; Vdss [14]: 1.5 L/kg; bioavailability [15]: 59%; half-life [3]: > 60 min; ED50 ([17]; Rattus norvegicus, Sprague-Dawley, po): 0.3 mg/kg; inhibition in vivo at 1 mg/kg [5]: 75%; concentration at 0.75 h [18]: 20.8 ng/mL; concentration at 0.75 h [19]: 17.8 ng/mL; inhibition in vivo at 3 mg/kg [6]: 65%; inhibition (INH) [20]: Not Active; inhibition (INH) [21]: Not Active; inhibition (INH) [22]: Not Active; inhibition (INH) [23]: Not Active; inhibition (INH) [24]: Not Active; Activity [25]: Active; Activity [26]: Active; Activity [27]: Dose-dependent effect
Cc1cc(C(=O)N2CCN(CC(=O)c3ccc(F)cc3)CC2)[nH]n1	> 10000	36	–
Cn1cc(I)c(C(=O)N2CCN(CC(=O)c3ccc(F)cc3)CC2)n1	3870	4.5	–
Cc1cc(C(=O)N2CCN(CC(=O)c3ccc(F)cc3)CC2)nn1C	> 10000	8.5	–
Cn1cc(Br)c(C(=O)N2CCN(CCc3ccccc3)CC2)n1	> 10000	68	–
CO/N=C(/CN1CCN(C(=O)c2nn(C)cc2Br)CC1)c1ccc(F)cc1	8600	2470	–
O=C(Nc1[nH]ncc1Br)N1CCN(CCc2ccc(F)cc2)CC1	> 10000	88	–
